According to US20200188388A1, “METHODS AND COMPOSITIONS FOR PO[…] DRUGS AND REDUCING THEIR SIDE EFFECTS” (RVX THERAPEUTICS LTD., priority 2016, published 2020):

Columns and labels:
Wistar rats [1] = test: Rotenone-induced PD: severe catalepsy on inclined grid; format: in vivo, rat; settings: for Severe catalepsy (% of group): 45 min before rotenone 2.3 mg/kg, immobilization on inclined grid above 40 seconds; for Severe catalepsy, Day 19: control 58, doses as E38; for Severe catalepsy, Day 12: oral daily 19 days, 45 min before rotenone 2.3 mg/kg IP, levodopa given with benserazide 4:1, control 42, rat dose mg/kg by row (L levodopa, P phenylephrine, M memantine): r12 M2.5, r13 M5, r14 P0.3, r15 L10, r16 L20, r17 L5+P0.3+M1, r18 L10+P0.3+M1
Text: Rotenone is a specific inhibitor of mitochondrial complex 1, which causes oxidative stress and apoptotic death of dopaminergic and cholinergic neurons in the striatum, substantia nigra and cerebellum. Damage to these neurons causes a decrease in dopamine and acetylcholine levels in the striatum, extrapyramidal disorders (catalepsy, impaired coordination of movements) and oligokinesia typical for PD, as well as ataxia, limb dystonia and mortality characteristic of PSP. Rotenone is used to create a model of PD and PSP in Wistar rats by intraperitoneal introduction of rotenone in a toxic dose of 2.3 mg/kg (Jason R. Cannon et al., Neurobiology of Disease, 2009, Vol. 34, pages 279-290).
Rotenone was dissolved in mixture of DMSO and Miglyol 812N at a ratio of 2:98 at concentration of 2.3 mg/ml. Preparation: 230 mg sample of rotenone in vials was dissolved in 2 ml of DMSO. The solution was poured into a jar with 100 ml. Vials are rinsed twice with 5 ml of Miglyol, washings attached to the main solution and stirred. To this solution was added 88 ml of Miglyol and mixed again. The resulting solution was divided into 3 doses. The solution was stored at −10° C. Each animal was administered 0.2 ml of a solution of rotenone: a dose of 0.46 mg per animal weighing 200±20 g, i.e. 2.3 mg/kg. The solution of rotenone was injected IP one time a day for 19 days.
Anti-parkinsonian effect of therapy in rats with rotenone-induced PD was estimated according to elimination of extrapyramidal disorders (catalepsy) and oligokinesia (rapid decreased amplitude and velocity of repeated movements) in the “open field” test. The neuro-protective effect of therapy was evaluated by the elimination of ataxia limb dystonia and mortality in rats with rotenone-induced PSP. Hyperkinetic side action (hyper-locomotion) was evaluated by increased horizontal and vertical activity in the open field at the 10th and 18th day of the experiment, calculated in % compared to the first day of the experiment.
The number of animals in the control and experimental groups ranged from 6 to 8.
Levodopa was administered in combination with benserazide (peripheral dopa-decarboxylase inhibitor) at a ratio of 4:1 to reduce the side effects of levodopa, associated with the stimulation of peripheral dopamine receptors (Alam M. et al., Behav. Brain Res., 2004, Vol. 153 (2), pages 439-446). Levodopa with benserazide were dissolved in 1 ml of DW and administered orally in the volume of 1 ml. […] The mixture was administered orally in a volume of 1 ml. Anti-parkinsonian effect in the experimental groups of rats with rotenone has been evaluated by eliminating catalepsy and oligokinesia.
Catalepsy in rats is determined by the time of immobilization of the animal, placed on a large grid predisposed at an angle of 45°. Maximum catalepsy in rats is recorded in the case of their complete immobilization on grid at 120 seconds for observation. The value of catalepsy is evaluated in points: 3 points—immobilization duration from 80 seconds to 120, 2 points—immobilization duration from 40 to 70, 1 point—immobilization duration from 20 to 35, 0 points—the immobilization of less than 20 seconds. Catalepsy was followed in rats daily, 30 minutes before administration of rotenone and 180 minutes after administration of rotenone. For each experimental group, on a daily basis, throughout the period of observation number of rats with severe catalepsy (2-3 points) was determined in % of the total number of rats in group. To assess the anti-cataleptic effects of therapy, on 12th and 19th day of experiment, reduction in the number of rats with severe catalepsy (2-3 points) in % was determined compared to control treated with distilled water.
Anti-parkinsonian effect of therapy in rats with rotenone-induced parkinsonism was estimated according to elimination of extrapyramidal disorders (catalepsy) and oligokinesia in the “open field” test. […]

Wistar rats [2] = test: Rotenone-induced PD: severe oligokinesia in open field test; format: in vivo, rat; settings: oligokinesia ++-+++ in OF test
Protocol: Locomotive activity of rats was tested in the “open field” test. […] Registration of horizontal and vertical locomotive activity was carried out in first day for rats with high selection locomotive activity (total walking time with not less than 12 seconds and the number of vertical uprights at least 4), 60 minutes before the first administration of rotenone. To identify the rotenone-induced oligokinesia in each experimental group the locomotive activity in the open field test was examined again 2 hours after the administration of rotenone on days 12 and 19 of the experiment.
(§1) Quantification of oligokinesia in points: 0 points—the highest horizontal activity (walking total time more than 12 seconds) and high vertical activity (number of vertical posts) more than 3; 1 point—reducing the horizontal activity (total walking time 7-11 seconds) and a decrease in vertical activity (the number of vertical columns 1-3); 2 points—a significant reduction in horizontal activity (total walking time 2-6 seconds) and the absence of vertical activity (the number of vertical columns 0-1); 3 points—the absence of horizontal activity (total walking time 0-1 seconds) and the absence of vertical activity (number of vertical columns 0). In each experimental group 120 minutes after administration of rotenone on days 12 and 19 of experiment the number of rats with severe oligokinesia (2-3 points) in % of the total number of rats in group was determined.
Locomotive activity of rats was tested in the “open field” test. […] Registration of horizontal and vertical locomotive activity was carried out in first day for rats with high selection locomotive activity (total walking time with not less than 12 seconds and the number of vertical uprights at least 4), 60 minutes before the first administration of rotenone. To identify the rotenone-induced oligokynesia in each experimental group the locomotive activity in the open field test was examined again 2 hours after the administration of rotenone on days 12 and 19 of the experiment.
as §1, with “of oligokynesia” for “of oligokinesia”

male Wistar rats = test: Opioid hyperalgesia in tail and paw withdrawal tests (% rats)

Q: What does the source list for `N[C@@H](Cc1ccc(O)c(O)c1)C(=O)O` [Levodopa, L-3,4-dihydroxyphenylalanine]?
A: Severe catalepsy (% of group) (Wistar rats [1]; Day 12, levodopa 10 mg/kg oral): 28 % of group; Severe catalepsy (% of group) (Wistar rats [1]; Day 12, levodopa 20 mg/kg oral): 12 % of group; Severe catalepsy (% of group) (Wistar rats [1]; Day 19, levodopa 10 mg/kg oral): 42 % of group; Severe catalepsy (% of group) (Wistar rats [1]; Day 19, levodopa 20 mg/kg oral): 24 % of group; Severe catalepsy, Day 19 (Wistar rats [1]; levodopa 10 mg/kg): 42 % of group; Severe catalepsy, Day 19 (Wistar rats [1]; levodopa 20 mg/kg): 24 % of group; Severe oligokinesia (% of group) (Wistar rats [2]; Day 12, levodopa 10 mg/kg oral): 86 % of group; Severe oligokinesia (% of group) (Wistar rats [2]; Day 12, levodopa 20 mg/kg oral): 50 % of group; Severe oligokinesia (% of group) (Wistar rats [2]; Day 19, levodopa 10 mg/kg oral): 100 % of group; Severe oligokinesia (% of group) (Wistar rats [2]; Day 19, levodopa 20 mg/kg oral): 63 % of group

Q: For `CC12CC3CC(C)(C1)CC(N)(C3)C2` [Memantine, memantine], which Hyperalgesia (male Wistar rats; doses as E6) is on record?
A: 0 % rats

Q: And the Hyperalgesia (male Wistar rats; doses as E12)?
A: 0 % rats

Q: And the Hyperalgesia (male Wistar rats; doses as E48)?
A: 0 % rats

Q: What about the Hyperalgesia (male Wistar rats; doses as E54) of the same compound?
A: 0 % rats

Q: And the “Severe catalepsy (% of group)” value (Wistar rats [1]; Day 12, memantine 5 mg/kg oral)?
A: 17 % of group

Q: What about the “Severe catalepsy (% of group)” value (Wistar rats [1]; Day 12, memantine […] oral) of the same compound?
A: 33 % of group

Q: What about the “Severe catalepsy (% of group)” value (Wistar rats [1]; Day 19, memantine 5 mg/kg oral) of the same compound?
A: 17 % of group

Q: And the “Severe catalepsy (% of group)” value (Wistar rats [1]; Day 19, memantine […] oral)?
A: 50 % of group

Q: And the “Severe catalepsy, Day 12” value (Wistar rats [1]; memantine 2.5 mg/kg)?
A: 33 % of group

Q: And the “Severe catalepsy, Day 12” value (Wistar rats [1]; memantine 5 mg/kg)?
A: 17 % of group

Q: And the “Severe oligokinesia (% of group)” value (Wistar rats [2]; Day 12, memantine 5 mg/kg oral)?
A: 50 % of group

Q: And the “Severe oligokinesia (% of group)” value (Wistar rats [2]; Day 19, memantine 5 mg/kg oral)?
A: 50 % of group
